Results reported in patent publication US10556865B2, “Synergistic herbicidal composition containing certain pyridine or pyrimidine carboxylic acids and certain cereal and rice herbicides” (Dow AgroSciences, LLC, priority 2007, dated 2020).
Several values for one entry are separate records, joined by “and”; a condition that tells them apart may be missing. Equal values may be shown once.

Tests used:
Format in all cases: in vivo
[1] = system: Echinochloa species (ECHSS); experiment: Herbicidal mixtures for weed control in transplanted paddy rice (in-water application, visual % injury after 3 weeks)
Method: (§1) Weed seeds or nutlets of the desired test plant species were planted in puddled soil (mud) prepared by mixing a non-sterilized mineral soil (28 percent silt, 18 percent clay, and 54 percent sand, with a pH of about 7.3 to 7.8 and an organic matter content of about 1.0 percent) and water at a ratio of 100 kilograms (kg) of soil to 19 L of water. The prepared mud was dispensed in 250 mL aliquots into 480 mL non-perforated plastic pots with a surface area of 91.6 square centimeters leaving a headspace of 3 centimeters in each pot. Rice seeds were planted in Sun Gro MetroMix® 306 planting mixture, which typically has a pH of 6.0 to 6.8 and an organic matter content of about 30 percent, in plastic plug trays. Seedlings at the second or third leaf stage of growth were transplanted into 650 mL of mud contained in 960 mL non-perforated plastic pots with a surface area of 91.6 cm^2 4 days prior to herbicide application. The paddy was created by filling the 3 centimeter headspace of the pots with water. When required to ensure good germination and healthy plants, a fungicide treatment and/or other chemical or physical treatment was applied. The plants were grown for 4-14 days in a greenhouse with an approximate 14 hr photoperiod which was maintained at about 29° C. during the day and 26° C. during the night. Nutrients were added as Osmocote (17:6:10, N:P:K+minor nutrients) at 2 g per cup. Water was added on a regular basis to maintain the paddy flood, and supplemental lighting was provided with overhead metal halide 1000-Watt lamps as necessary. The plants were employed for testing when they reached the second or third true leaf stage.
(§2) Treatments consisted of esters or salts of compound A, compound C, or compound D and various herbicidal components alone and in combination. For technical grade compounds, a weighed amount, determined by the highest rate to be tested, was placed in an individual 120 mL glass vial and was dissolved in 20 mL of acetone to obtain concentrated stock solutions. […] The concentrated stock solutions obtained were diluted with 20 mL of an aqueous mixture containing 2.5% Agri-dex crop oil concentrate (v/v). For formulated compounds, a measured amount, determined by the highest rate to be tested, was placed in an individual 120 mL glass vial and was dissolved in 20 mL of 2.5% (v/v) Agri-dex crop oil concentrate to obtain concentrated stock solutions. The concentrated stock solutions obtained were diluted with 20 mL of acetone. Applications were made by injecting an appropriate amount of the stock solution into the aqueous layer of the paddy. Control plants were treated in the same manner with the solvent blank. All treated plant material received the same concentration of acetone and crop oil concentrate.
(§3) Forms of compounds A, C, and D were applied on an acid equivalent basis. Other herbicidal components were applied on an active ingredient basis and included acetolactate synthase (ALS)-inhibiting herbicides penoxsulam (triazolopyrimidine chemical class) applied as Grasp SC, […] (sulfonylurea chemical class) applied as Sirius G, and bensulfuron-methyl (sulfonylurea chemical class) applied as Londax; acetyl CoA carboxylase (ACCase) inhibiting herbicides cyhalofop-butyl applied as Clincher G and fenoxaprop-p-ethyl applied as Ricestar HT; auxinic herbicide quinclorac applied as Facet 75 DF; phytoene desaturase inhibiting herbicide norflurazon; and p-hydroxyphenylpyruvate dioxygenase (HPPD) inhibiting herbicide sulcotrione applied as Mikado.
(§4) The treated plants and control plants were placed in a greenhouse as described above and water was added as needed to maintain a paddy flood. After 3 weeks the condition of the test plants as compared with that of the untreated plants was determined visually and scored on a scale of 0 to 100 percent where 0 corresponds to no injury and 100 corresponds to complete kill.

[2] = system: Cyperus species (CYPSS); experiment: Herbicidal mixtures for weed control in transplanted paddy rice (in-water application, visual % injury)
Method: as §1, §2, §3, §4

[3] = system: Eleocharis kuroguwai OHWI (ELOKU); experiment: as above
Method: as §1, §2, §3, §4

[4] = system: Leptochloa chinensis (L.) NEES (LEFCH); experiment: as above
Method: as §1, §2, §3, §4

[5] = system: Leptochloa chinensis (L.) NEES (LEFCH); experiment: Postemergence herbicidal mixtures for weed control in direct seeded rice (greenhouse, visual % injury)
[6] = system: Fimbristylis miliacea (L.) VAHL (FIMMI); experiment: Herbicidal mixtures for weed control in transplanted paddy rice (in-water application, visual % injury)
Method: as §1, with “When required to ensure good germination and healthy plants, a fungicide treatment and/or other chemical or physical treatment was applied.” left out
as §2, §3, §4

[7] = system: Polygonum persicaria L. (POLPE); experiment: Postemergence herbicidal mixtures for weed control in direct seeded rice (greenhouse, visual % injury)
[8] = system: Cyperus iria L. (CYPIR); experiment: as above
[9] = system: Cyperus esculentus L. (CYPES); experiment: as above
[10] = system: Ipomoea hederacea (L.) JACQ. (IPOHE); experiment: Postemergence herbicidal mixtures for weed control in direct seeded rice (greenhouse, visual % injury after 3 weeks)
[11] = system: Scirpus maritimus L. (SCPMA); experiment: Postemergence herbicidal mixtures for weed control in direct seeded rice (greenhouse, visual % injury)
[12] = system: Ischaemum rugosum SALISB. (ISCRU); experiment: as above
[13] = system: Polygonum pensylvanicum L. (POLPY); experiment: as above

## COC(=O)c1ccccc1CS(=O)(=O)NC(=O)Nc1nc(OC)cc(OC)n1 [Bensulfuron-methyl]
[1]; ECHCG, 70 g/ha alone
  % Injury Ob: 45% and 70%
[1]; ECHCO, 35 g/ha alone
  % Injury Ob: 20%
[1]; ECHCO, 70 g/ha alone
  % Injury Ob: 30%
[2]; CYPES, 4.38 g/ha alone
  % Injury Ob: 40%
[2]; CYPES, 8.75 g/ha alone
  % Injury Ob: 50%
[3]; 35 g/ha alone
  % Injury Ob: 20%
[3]; 70 g/ha alone
  % Injury Ob: 70%
[4]; 35 g/ha alone
  % Injury Ob: 15%
[4]; 70 g/ha alone
  % Injury Ob: 30%
[5]; alone 4.38 g/ha
  % Injury LEFCH Ob: 20%
[5]; alone 8.75 g/ha
  % Injury LEFCH Ob: 0%
[6]; 35 g/ha alone
  % Injury Ob: 10%
[6]; 70 g/ha alone
  % Injury Ob: 50%

## CCOC(=O)C(Cl)Cc1cc(-n2nc(C)n(C(F)F)c2=O)c(F)cc1Cl (centres unmarked) [Carfentrazone-ethyl]
[7]; alone 14 g/ha
  % Injury POLPE Ob: 0%
[8]; alone 14 g/ha
  % Injury CYPIR Ob: 0%
[8]; alone 28 g/ha
  % Injury CYPIR Ob: 0%
[9]; alone 14 g/ha
  % Injury 11 DAA CYPES Ob: 10%
  % Injury 21 DAA CYPES Ob: 0%
[9]; alone 28 g/ha
  % Injury 11 DAA CYPES Ob: 10%
  % Injury 21 DAA CYPES Ob: 0%
[9]; alone 56 g/ha
  % Injury CYPES Ob: 10%
[9]; alone 112 g/ha
  % Injury CYPES Ob: 0%

## CCCCOC(=O)c1nc(-c2ccc(Cl)c(OC)c2F)cc(N)c1Cl [Compound A n-Butyl]
[10]; alone 8.75 g/ha
  % Injury IPOHE Ob: 35%
[10]; alone 17.5 g/ha
  % Injury IPOHE Ob: 30%
[11]; alone 35 g/ha
  % Injury at 11 DAA SCPMA Ob: 30%
  % Injury at 21 DAA SCPMA Ob: 50%
[11]; alone 70 g/ha
  % Injury at 11 DAA SCPMA Ob: 100%
  % Injury at 21 DAA SCPMA Ob: 100%
[12]; alone 35 g/ha
  % Injury ISCRU Ob: 20%
[12]; alone 70 g/ha
  % Injury ISCRU Ob: 50%
[5]; alone 8.75 g/ha
  % Injury LEFCH Ob: 10%
[5]; alone 17.5 g/ha
  % Injury LEFCH Ob: 30%
[5]; alone 35 g/ha
  % Injury LEFCH Ob: 60%
[7]; alone 4.38 g/ha
  % Injury POLPE Ob: 40%
[7]; alone 8.75 g/ha
  % Injury POLPE Ob: 60%
[8]; alone 35 g/ha
  % Injury at 11 DAA CYPIR Ob: 60%
  % Injury at 21 DAA CYPIR Ob: 60%
[8]; alone 70 g/ha
  % Injury at 11 DAA CYPIR Ob: 90%
  % Injury at 21 DAA CYPIR Ob: 100%
[13]; alone 8.75 g/ha
  % Injury POLPY Ob: 40%
[13]; alone 17.5 g/ha
  % Injury POLPY Ob: 90%
[9]; alone 35 g/ha
  % Injury 11 DAA CYPES Ob: 50%
  % Injury 21 DAA CYPES Ob: 90%
[9]; alone 70 g/ha
  % Injury 11 DAA CYPES Ob: 75%
  % Injury 21 DAA CYPES Ob: 100%
[9]; alone 8.75 g/ha
  % Injury CYPES Ob: 50%
[9]; alone 17.5 g/ha
  % Injury CYPES Ob: 85% and 90%

## COC(=O)c1nc(-c2ccc(Cl)c(OC)c2Cl)cc(N)c1Cl [Compound C Methyl]
[1]; ECHCG, 4.38 g/ha alone
  % Injury Ob: 0%
[1]; ECHCG, 8.75 g/ha alone
  % Injury Ob: 0%
[1]; ECHCG, 17.5 g/ha alone
  % Injury Ob: 0%
[1]; ECHCG, 35 g/ha alone
  % Injury Ob: 10%
[10]; alone 4.38 g/ha
  % Injury IPOHE Ob: 40%
[10]; alone 17.5 g/ha
  % Injury IPOHE Ob: 50% and 40%
[10]; alone 70 g/ha
  % Injury IPOHE Ob: 85%
[4]; 17.5 g/ha alone
  % Injury Ob: 0%
[4]; 35 g/ha alone
  % Injury Ob: 0%
[4]; 70 g/ha alone
  % Injury Ob: 0%
[5]; alone 4.38 g/ha
  % Injury LEFCH Ob: 0%
[7]; alone 35 g/ha
  % Injury POLPE Ob: 85%
[7]; alone 70 g/ha
  % Injury POLPE Ob: 100%
[8]; alone 8.75 g/ha
  % Injury CYPIR Ob: 25%
[8]; alone 35 g/ha
  % Injury CYPIR Ob: 40%
[13]; alone 8.75 g/ha
  % Injury POLPY Ob: 10%
[13]; alone 17.5 g/ha
  % Injury POLPY Ob: 15%
[9]; alone 17.5 g/ha
  % Injury CYPES Ob: 65% and 100%

## COCc1cnc(C2=NC(C)(C(C)C)C(=O)N2)c(C(=O)O)c1 (centres unmarked) [Imazamox]
[12]; alone 22.4 g/ha
  % Injury ISCRU Ob: 50%

## CCc1cnc(C2=NC(C)(C(C)C)C(=O)N2)c(C(=O)O)c1 (centres unmarked) [Imazethapyr]
[12]; alone 35 g/ha
  % Injury ISCRU Ob: 20%

## COc1cnc(OC)n2nc(NS(=O)(=O)c3c(OCC(F)F)cccc3C(F)(F)F)nc12 [Penoxsulam]
[1]; ECHCG, 4.38 g/ha alone
  % Injury Ob: 70%
[10]; alone 4.38 g/ha
  % Injury IPOHE Ob: 70%
[10]; alone 8.75 g/ha
  % Injury IPOHE Ob: 60%
[2]; CYPES, 8.75 g/ha alone
  % Injury Ob: 40%
[2]; CYPIR, 8.75 g/ha alone
  % Injury Ob: 70%
[3]; 8.75 g/ha alone
  % Injury Ob: 0%
  % Injury Obs: 0%
[4]; 8.75 g/ha alone
  % Injury Ob: 0%
[4]; 17.5 g/ha alone
  % Injury Ob: 15%
[4]; 35 g/ha alone
  % Injury Ob: 20%
[5]; alone 17.5 g/ha
  % Injury LEFCH Ob: 0%
[5]; alone 35 g/ha
  % Injury LEFCH Ob: 0%
[9]; alone 17.5 g/ha
  % Injury CYPES Ob: 10%

## CCC(=O)Nc1ccc(Cl)c(Cl)c1 [Propanil]
[10]; alone 560 g/ha
  % Injury IPOHE Ob: 10%
[10]; alone 1120 g/ha
  % Injury IPOHE Ob: 10%
[11]; alone 560 g/ha
  % Injury at 11 DAA SCPMA Ob: 30%
  % Injury at 21 DAA SCPMA Ob: 0%
[11]; alone 1120 g/ha
  % Injury at 11 DAA SCPMA Ob: 30%
  % Injury at 21 DAA SCPMA Ob: 0%
[7]; alone 560 g/ha
  % Injury POLPE Ob: 10%
[7]; alone 1120 g/ha
  % Injury POLPE Ob: 40%
[8]; alone 560 g/ha
  % Injury at 11 DAA CYPIR Ob: 10%
  % Injury at 21 DAA CYPIR Ob: 0%
[8]; alone 1120 g/ha
  % Injury at 11 DAA CYPIR Ob: 10%
  % Injury at 21 DAA CYPIR Ob: 0%
